Data set [1] deals with pharynx squamous cell carcinoma FaDu. The experiment in a line: In vitro proliferation assay (sulforhodamine B), FaDu. It is filed as cell-based, human. To be noted: Homo sapiens, FaDu, 48 h. On the procedure:
(§1) The possible antitumoral activity of these new compounds was analyzed by the effects exerted on the proliferation of five human tumor cell lines of different histotype. Therefore, the modifications on cell viability and replication determined by the treatment with each single compound were evaluated. The following human tumor cell lines triple-negative breast cancer MDA-MB231, colon carcinoma HT-29, glioblastoma multiforme U-87 MG, tongue squamous cell carcinoma CAL27 and pharynx squamous cell carcinoma FaDu were treated for 24 and 48 h with 10, 20, 30, 40, 50 and 60 μM of each single compound.
(§2) Anti-proliferative activities are reported in Table 2 (compounds 1b–g, 3) and Table 3 (compounds 2a–f) in comparison with reference compound 1a.
(§3) The following human tumor cell lines were utilized in the present study: glioblastoma multiforme U-87 MG, triple-negative breast cancer MDA-MB231, colon carcinoma HT-29, tongue squamous cell carcinoma CAL27 and pharynx squamous cell carcinoma FaDu, all of which obtained from the American Type Culture Collection (Manassas, VA, USA). In addition, human dermal fibroblast primary cultures (HF) used as control of non-transformed cells, had been previously established in our laboratory.
(§4) The cells were grown at 37 °C and 5% CO2 in Dulbecco’s modified Eagle’s medium or RPMI 1640 medium supplemented with 10% fetal bovine serum, 2 mM glutamine and 50 U/mL penicillin-streptomycin (Sigma-Aldrich).
(§5) All compounds were solubilized in dimethylsulfoxide (DMSO) (Sigma) for a 10 mM stock solution and utilized to final concentrations from 100 nM to 60 μM for 24 and 48 h. Control cells were treated with equivalent amounts of DMSO in every experiment.
(§6) To determine cytotoxicity, a sulforhodamine B colorimetric assay was performed. Cells (1.5 × 10^4) were plated in a 96-well plate, grown for 24 h and then treated with different concentrations of each compound for 24 and 48 h at 37 °C. Cells were then fixed with 50% trichloroacetic acid for 1 h at 4 °C and stained for 30 min at room temperature with 0.4% sulforhodamine B in 1% acetic acid. Excess dye was removed by washing four times with 1% acetic acid. Protein-bound dye was dissolved in 10 mM Tris (pH 10), and optical density was determined at 510 nm using a microplate reader. Each experiment was performed three times and the media was calculated.

The test system of data set [2] is human cancer cells of different histotypes. More on the design: method as in PMID 30900116. The conditions noted are these: cited from earlier work.
Another data set concerns colon carcinoma HT-29. The experiment in a line: In vitro proliferation assay (sulforhodamine B), HT-29. The data set is classed as cell-based, human. The conditions noted are these: Homo sapiens, HT-29, 48 h, 48 h. On the procedure: as §1, §2, §3, §4, §5, §6
Data set [3] concerns glioblastoma multiforme U-87 MG. The experiment in a line: In vitro proliferation assay (sulforhodamine B), U-87 MG. It is filed as cell-based, human. To be noted: Homo sapiens, U-87 MG, 48 h. The method, then:
as §1, §2, §3, §4, §5, §6

Data set [4] in a line: Cytotoxicity on normal cells (sulforhodamine B), HF. It is filed as cell-based, human. The conditions noted are these: human, human dermal fibroblast primary cultures (HF), 48 h. The method, then:
as §3, §4, §5, §6

The test system of data set [5] is tongue squamous cell carcinoma CAL27. Put plainly: In vitro proliferation assay (sulforhodamine B), CAL27. The data set is classed as cell-based, human. The conditions noted are these: Homo sapiens, CAL-27, 48 h, 48 h. The method, then:
as §1, §2, §3, §4, §5, §6

In data set [6] the test system is triple-negative breast cancer MDA-MB231. The experiment in a line: In vitro proliferation assay (sulforhodamine B), MDA-MB231. It is filed as cell-based, human. To be noted: Homo sapiens, MDA-MB-231, 48 h, 48 h. The method, then:
as §1, §2, §3, §4, §5, §6

By EC50 is commonly meant the concentration needed to bring the measured effect to its halfway point. The term CC50 denotes the concentration giving 50% cytotoxicity. A higher CC50 goes with lower toxicity to the cells. With `CCN(CC)CCCNc1cc(N)nc(Nc2cccc(Cl)c2)n1` [Compound 1a, N^2-(3-Chlorophenyl)-N^4-(3-(diethylamino)propyl)pyrimidine-2,4,6-triamine], the EC50 in data set [1] is more than 60 µM; in the data set on colon carcinoma HT-29 it was 51.8 µM; in data set [3], more than 60 µM; in data set [5], 54.2 µM; in data set [6] it was 34.8 µM. Besides, the “effect on cell cycle” value in data set [2] (20 μM) is “upregulation of p21 and p27 and blockage of the cell cycle at G0/G1”. In addition, the induction of apoptosis result in data set [2] (30–50 μM) is recorded as “induced apoptosis”. The 50% cytotoxic concentration (CC50) at 48 h in data set [4] was more than 60 µM.
